Molecules are shown by their SMILES.

For the assay, the target named is T1, purified human placenta 20S proteasome (Homo sapiens, UniProt P28074).
T1 construct: 1 μl purified human placenta 20S proteasome; tissue Diabetes Forschungsinstitut, Düsseldorf, Germany; host or cells: human placenta
The assay is described as follows: Inhibition of the chymotrypsin-like activity of the 20S proteasome (Suc-LLVY-AMC hydrolysis). It is filed as biochemical. The settings on record: Suc-LLVY-AMC substrate, 60 min preincubation at room temperature, Table 1. An excerpt: It is based on the hydrolysis of the fluorogenic peptide Suc-LLVY-AMC (Succinyl-leucine-leucine-valine-tyrosine-7-amino-4-methyl-coumarin), which is cleaved exclusively at the Y-AMC bond by the 20S proteasome. Hydrolysis of this peptide is accompanied by an increase in fluorescence intensity [λex (excitation wavelength): 355 nm; λem (emission wavelength): 460 nm] due to release of the internally quenched […] fluorescence that accompanies diffusion apart of the hydrolysis product Suc-LLVY.
2 μl of a 1 mM solution of a test compound in DMSO (dimethylsulfoxide, 20 μM final concentration in the well) are preincubated for 60 min at room temperature in black 96-well microtiter plates together with a mixture of 1 μl purified human placenta 20S proteasome (Diabetes Forschungsinstitut, Düsseldorf, Germany; about 100 ng proteasome, depending on the proteasome preparation) and 47 μl buffer-Ca [5 mM CaCl2, 20 mM Tris/HCl (Tris-(hydroxymethyl)-amino-methane hydrochloride) pH 8.0]. 3 μl of a 2.67 mM solution of Suc-LLVY-AMC (Bachem, Switzerland) in DMSO (80 μM final concentration in the well) and 47 μl buffer-Ca are mixed and added. The resulting mixture is incubated for 3-24 h at 37° C. If desired, proteolysis of the substrate can be stopped by addition of 50 μl stop solution (100 mM monochloroacetic acid, 130 mM NaOH, 100 mM acetic acid, pH=4.3). The fluorescence is monitored with a FLUOROSKAN ASCENT™ microtiter plate reader.
To each measure series two control experiments have to be carried out:
1.) 0% value: 2 μl DMSO are used in the above described assay instead of 2 μl of a 1 mM solution of a test compound in DMSO and 48 μl buffer-Ca instead of a mixture of 47 μl buffer-Ca and 1 μl purified proteasome.
2.) 100% value: in the above described assay 2 μl DMSO are used instead of 2 μl of a 1 mM solution of the test compound in DMSO.
The IC50 value is defined as that concentration of a compound at which the remaining activity is 50%.
By IC50 is commonly meant the point on the concentration scale where inhibition reaches its midpoint. A lower IC50 goes with inhibition by little substance. Compound `COc1ccc(CNC(=O)[C@@H](NC(=O)[C@H](NCc2cccc3ccccc23)[C@H](O)[C@H](Cc2ccccc2)NC(=O)[C@@H](NC(=O)Cc2cccc3ccccc23)C(C)(C)C)C(C)C)c(O)c1` [Example 15, (2R,3R,4S)-4-[(S)-3,3-Dimethyl-2-(2-naphthalen-1-yl-acetylamino)-butyrylamino]-3-hydroxy-2-[(naphthalen-1-ylmethyl)-amino]-5-phenyl-pentanoic acid [(S)-1-(2-hydroxy-4-methoxy-benzylcarbamoyl)-2-methyl-propyl]-amide] came in with an IC50 of 0.15 µM.

`COc1cccc(CN[C@@H](C(=O)N[C@H](C(=O)NCc2ccc(OC)cc2O)C(C)C)[C@H](O)[C@H](Cc2ccccc2)NC(=O)[C@@H](NC(=O)OCc2ccccc2)C(C)(C)C)c1` [Example 4, {(S)-1-[(1S,2R,3R)-1-Benzyl-2-hydroxy-3-[(S)-1-(2-hydroxy-4-methoxy-benzylcarbamoyl)-2-methyl-propylcarbamoyl]-3-(3-methoxy-benzylamino)-propylcarbamoyl]-2,2-dimethyl-propyl}-carbamic acid benzyl ester] gave a half-inhibitory concentration (IC50) of 1.5 µM. `COc1ccc(CNC(=O)[C@@H](NC(=O)[C@H](NCc2cc(OC)c(OC)cc2OC)[C@H](O)[C@H](Cc2ccccc2)NC(=O)[C@@H](NC(=O)Cc2cccc3ccccc23)C(C)(C)C)C(C)C)c(O)c1` [Example 14, (2R,3R,4S)-4-[(S)-3,3-Dimethyl-2-(2-naphthalen-1-yl-acetylamino)-butyrylamino]-3-hydroxy-5-phenyl-2-(2,4,5-trimethoxy-benzylamino)-pentanoic acid [(S)-1-(2-hydroxy-4-methoxy-benzylcarbamoyl)-2-methyl-propyl]-amide] had an IC50 of 0.029 µM.

On to `COc1ccc(CNC(=O)[C@@H](NC(=O)[C@H](NCc2ccc(OC)c(OC)c2OC)[C@H](O)[C@H](Cc2ccccc2)NC(=O)[C@@H](NC(=O)Cc2cccc3ccccc23)C(C)(C)C)C(C)C)c(O)c1` [Example 13, (2R,3R,4S)-4-[(S)-3,3-Dimethyl-2-(2-naphthalen-1-yl-acetylamino)-butyrylamino]-3-hydroxy-5-phenyl-2-(2,3,4-trimethoxy-benzylamino)-pentanoic acid [(S)-1-(2-hydroxy-4-methoxy-benzylcarbamoyl)-2-methyl-propyl]-amide], for which the IC50 worked out at 0.018 µM.

`COc1cc(CN[C@@H](C(=O)N[C@H](C(=O)NCc2ccc(OC)cc2O)C(C)C)[C@H](O)[C@H](Cc2ccccc2)NC(=O)[C@@H](NC(=O)OCc2ccccc2)C(C)(C)C)cc(OC)c1` [Example 9, ((S)-1-{(1S,2R,3R)-1-Benzyl-3-(3,5-dimethoxy-benzylamino)-2-hydroxy-3[(S)-1-(2-hydroxy-4-methoxy-benzylcarbamoyl)-2-methyl-propylcarbamoyl]-propylcarbamoyl}-2,2-dimethyl-propyl)-carbamic acid benzyl ester] showed an IC50 of 0.19 µM. The value for `COc1ccc(CNC(=O)[C@@H](NC(=O)[C@H](NCc2cccc3ccccc23)[C@H](O)[C@H](Cc2ccccc2)NC(=O)[C@@H](NC(=O)OCc2ccccc2)C(C)(C)C)C(C)C)c(O)c1` [Example 1, ((S)-1-{(1S,2R,3R)-1-Benzyl-2-hydroxy-3-[(S)-1-(2-hydroxy-4-methoxy-benzylcarbamoyl)-2-methyl-propylcarbamoyl]-3-[(naphthalen-1-ylmethyl)-amino]-propylcarbamoyl}-2,2-dimethyl-propyl)-carbamic acid benzyl ester] was 0.26 µM. Compound `COc1ccc(CNC(=O)[C@@H](NC(=O)[C@H](NCc2ccc(OC)cc2OC)[C@H](O)[C@H](Cc2ccccc2)NC(=O)[C@@H](NC(=O)OCc2ccccc2)C(C)(C)C)C(C)C)c(O)c1` [Example 5, ((S)-1-{(1S,2R,3R)-1-Benzyl-3-(2,4-dimethoxy-benzylamino)-2-hydroxy-3-[(S)-1-(2-hydroxy-4-methoxy-benzylcarbamoyl)-2-methyl-propylcarbamoyl]-propylcarbamoyl}-2,2-dimethyl-propyl)-carbamic acid benzyl ester] returned an IC50 of 1.6 µM.

For the origin of these results see patent publication US20060205673A1, “2-Amino-3-hydroxy-4-tert-leucyl-amino-5-phenyl-pentanoic acid amide derivatives” (priority 2000, published 2006).
